Laboratory results from patent US20240425482A1, “PYRROLIDINE DERIVATIVES AS DDRS INHIBITORS” (CHIESI FARMACEUTICI S.P.A., priority 2021, published 2024).

Key:
DDR1 = DDR1 (Homo sapiens (Human), UniProt Q08345); test: DDR1 LanthaScreen Europium Kinase Binding assay; details: binding; 5 nM DDR1, 20 nM Kinase Tracer 178, 1 hour at rt; Ki from IC50 by Cheng-Prusoff; read-out: Ki DDR1
Procedure: (§1) DDR1 and DDR2 binding assays were performed using Life Technologies LanthaScreen™ Europium Kinase Binding assay. The compounds were incubated with 5 nM DDR1 (Carna Biosciences) or 5 nM DDR2 (Life Technologies) for 1 hour at rt in white 384-well OptiPlate (PerkinElmer), containing 20 nM or 10 nM Kinase Tracer 178 respectively and 2 nM Europium labelled anti-GST antibody (Life Technologies) in assay buffer (50 mM HEPES pH 7.5, 10 mM MgCI2, 1 mM EGTA and 0.01% BRIJ35). The ratio of fluorescence emission 665 nm/615 nm after excitation at 340 nm was obtained using the Tecan Spark 20M plate reader. IC50 values were determined in GraphPad Prism 7.0 software, using 4 parameter model: log(inhibitor) vs. response. IC50 values were converted in Ki using the Cheng-Prusoff equation (Ki=IC50/(1+[Tracer]/Kd).
(§2) Compounds C1 and C2 were tested in the same binding assay described above.

DDR2 = DDR2 (Homo sapiens (Human), UniProt Q16832); test: DDR2 LanthaScreen Europium Kinase Binding assay; details: binding; 5 nM DDR2, 10 nM Kinase Tracer 178, 1 hour at rt; Ki from IC50 by Cheng-Prusoff; read-out: Ki DDR2
Sequence of DDR2 (Q16832 22-855): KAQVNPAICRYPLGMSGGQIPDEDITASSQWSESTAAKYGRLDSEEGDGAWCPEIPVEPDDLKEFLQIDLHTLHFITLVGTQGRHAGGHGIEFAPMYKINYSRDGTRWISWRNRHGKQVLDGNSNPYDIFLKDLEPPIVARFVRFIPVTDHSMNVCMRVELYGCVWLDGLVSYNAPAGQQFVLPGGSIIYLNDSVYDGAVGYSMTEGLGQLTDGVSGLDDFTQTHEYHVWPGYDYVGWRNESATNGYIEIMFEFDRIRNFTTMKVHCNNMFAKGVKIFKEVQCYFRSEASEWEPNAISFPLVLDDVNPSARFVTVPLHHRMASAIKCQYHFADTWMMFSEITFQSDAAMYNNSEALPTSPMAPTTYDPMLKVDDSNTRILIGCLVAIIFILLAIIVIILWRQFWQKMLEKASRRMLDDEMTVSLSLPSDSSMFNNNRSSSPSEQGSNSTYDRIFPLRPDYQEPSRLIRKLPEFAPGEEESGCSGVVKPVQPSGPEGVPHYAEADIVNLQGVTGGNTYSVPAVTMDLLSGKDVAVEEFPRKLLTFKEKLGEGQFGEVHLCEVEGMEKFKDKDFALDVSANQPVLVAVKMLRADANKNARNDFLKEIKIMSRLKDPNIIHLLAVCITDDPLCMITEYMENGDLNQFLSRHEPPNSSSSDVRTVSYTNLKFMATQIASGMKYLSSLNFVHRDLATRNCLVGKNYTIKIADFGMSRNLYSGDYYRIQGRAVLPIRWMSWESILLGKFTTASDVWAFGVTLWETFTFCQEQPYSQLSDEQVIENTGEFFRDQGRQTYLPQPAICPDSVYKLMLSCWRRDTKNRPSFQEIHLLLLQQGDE
Procedure: as §1, §2

Sequence of DDR1 (Q08345 19-913): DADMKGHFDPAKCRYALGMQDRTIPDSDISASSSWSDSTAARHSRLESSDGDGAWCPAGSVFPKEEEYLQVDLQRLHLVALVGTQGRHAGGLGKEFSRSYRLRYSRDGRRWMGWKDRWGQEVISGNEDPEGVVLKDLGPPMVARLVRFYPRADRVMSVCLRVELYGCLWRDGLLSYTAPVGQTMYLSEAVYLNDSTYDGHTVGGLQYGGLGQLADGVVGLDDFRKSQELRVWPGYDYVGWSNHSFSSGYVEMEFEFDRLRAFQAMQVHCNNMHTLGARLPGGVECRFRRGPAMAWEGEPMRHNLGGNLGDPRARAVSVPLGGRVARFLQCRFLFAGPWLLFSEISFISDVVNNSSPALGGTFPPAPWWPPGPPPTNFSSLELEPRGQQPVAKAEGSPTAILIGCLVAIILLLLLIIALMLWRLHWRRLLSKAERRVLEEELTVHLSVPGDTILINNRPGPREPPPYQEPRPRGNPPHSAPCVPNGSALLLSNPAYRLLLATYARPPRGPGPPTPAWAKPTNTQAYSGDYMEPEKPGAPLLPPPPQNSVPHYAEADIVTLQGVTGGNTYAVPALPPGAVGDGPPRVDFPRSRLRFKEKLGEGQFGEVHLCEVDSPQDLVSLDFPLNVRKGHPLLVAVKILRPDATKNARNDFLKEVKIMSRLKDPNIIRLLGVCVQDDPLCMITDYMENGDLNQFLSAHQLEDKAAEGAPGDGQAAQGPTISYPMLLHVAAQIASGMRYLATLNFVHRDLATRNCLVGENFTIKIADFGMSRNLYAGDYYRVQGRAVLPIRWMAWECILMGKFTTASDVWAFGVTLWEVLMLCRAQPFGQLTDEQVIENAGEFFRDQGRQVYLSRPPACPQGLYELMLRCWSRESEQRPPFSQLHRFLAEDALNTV

SMILES | Ki (DDR1) | Ki (DDR2)
Cc1ccc(C(=O)Nc2cccc(C(F)(F)F)c2)cc1C1CCN(c2cncc(N3CCN(C)CC3)c2)C1 (centres unmarked) [Example 12, 4-methyl-3-(1-(5-(4-methylpiperazin-1-yl)pyridin-3-yl)pyrrolidin-3-yl)-N-(3-(trifluoromethyl)phenyl)benzamide] | < 10 nM | 10 to 25 nM
CO[C@@H]1CCCN(c2cncc(N3CC[C@@H](c4cc(C(=O)Nc5cccc(C(F)(F)F)c5)ccc4C)C3)c2)C1 [Example 36, 3-((S)-1-(5-((R)-3-methoxypiperidin-1-yl)pyridin-3-yl)pyrrolidin-3-yl)-4-methyl-N-(3-(trifluoromethyl)phenyl)benzamide] | < 10 nM | 25 to 60 nM
Cc1ccc(C(=O)Nc2cccc(C(F)(F)F)c2)cc1C1CCN(c2cncc(CN3CCOCC3)c2)C1 (centres unmarked) [Example 11, 4-methyl-3-(1-(5-(morpholinomethyl)pyridin-3-yl)pyrrolidin-3-yl)-N-(3-(trifluoromethyl)phenyl)benzamide] | < 10 nM | 10 to 25 nM
Cc1ccc(C(=O)Nc2cccc(C(F)(F)F)c2)cc1C1CCN(c2cncc(OCCN3CCN(C)CC3)c2)C1 (centres unmarked) [Example 6, 4-methyl-3-(1-(5-(2-(4-methylpiperazin-1-yl)ethoxy)pyridin-3-yl)pyrrolidin-3-yl)-N-(3-(trifluoromethyl)phenyl)benzamide] | < 10 nM | < 10 nM
Cc1ccc(C(=O)Nc2ccc(CN3CCOCC3)c(C(F)(F)F)c2)cc1[C@@H]1CCN(c2cncc(C(N)=O)c2)C1 [Example 56, (S)-5-(3-(2-methyl-5-((4-(morpholinomethyl)-3-(trifluoromethyl)phenyl)carbamoyl)phenyl)pyrrolidin-1-yl)nicotinamide] | < 10 nM | 10 to 25 nM
Cc1ccc(C(=O)Nc2cccc(C(F)(F)F)c2)cc1[C@@H]1CCN(c2cncc(Nc3cnn(C)c3)c2)C1 [Example 45, (S)-4-methyl-3-(1-(5-((1-methyl-1H-pyrazol-4-yl)amino)pyridin-3-yl)pyrrolidin-3-yl)-N-(3-(trifluoromethyl)phenyl)benzamide] | < 10 nM | 10 to 25 nM
COCCNC(=O)c1cncc(N2CC[C@@H](c3cc(C(=O)Nc4cccc(C(F)(F)F)c4)ccc3C)C2)c1 [Example 35, (S)-N-(2-methoxyethyl)-5-(3-(2-methyl-5-((3-(trifluoromethyl)phenyl)carbamoyl)phenyl)pyrrolidin-1-yl)nicotinamide] | < 10 nM | < 10 nM
CNC(=O)c1cncc(N2CC[C@@H](c3cc(C(=O)Nc4cccc(C(F)(F)F)c4)ccc3C)C2)c1 [Example 26, (S)-N-methyl-5-(3-(2-methyl-5-((3-(trifluoromethyl)phenyl)carbamoyl)phenyl)pyrrolidin-1-yl)nicotinamide] | < 10 nM | < 10 nM
Cc1ccc(C(=O)Nc2cccc(C(F)(F)F)c2)cc1[C@@H]1CCN(c2ccc(N)nc2)C1 [Example 50, (S)-3-(1-(6-aminopyridin-3-yl)pyrrolidin-3-yl)-4-methyl-N-(3-(trifluoromethyl)phenyl)benzamide] | < 10 nM | 25 to 60 nM
Cc1ccc(C(=O)Nc2cccc(C(F)(F)F)c2)cc1[C@@H]1CCN(c2cncc(N3CC4(COC4)C3)c2)C1 [Example 37, (S)-3-(1-(5-(2-oxa-6-azaspiro[3.3]heptan-6-yl)pyridin-3-yl)pyrrolidin-3-yl)-4-methyl-N-(3-(trifluoromethyl)phenyl)benzamide] | < 10 nM | 10 to 25 nM
Cc1ccc(C(=O)Nc2cccc(C(F)(F)F)c2)cc1[C@@H]1CCN(c2cncc(C(F)F)c2)C1 [Example 38, (S)-3-(1-(5-(difluoromethyl)pyridin-3-yl)pyrrolidin-3-yl)-4-methyl-N-(3-(trifluoromethyl)phenyl)benzamide] | < 10 nM | 10 to 25 nM
COc1cncc(N2CCC(c3cc(C(=O)Nc4cccc(C(F)(F)F)c4)ccc3C)C2)c1 (centres unmarked) [Example 3, 3-(1-(5-methoxypyridin-3-yl)pyrrolidin-3-yl)-4-methyl-N-(3-(trifluoromethyl)phenyl)benzamide] | < 10 nM | < 10 nM
CNc1ncc(N2CC[C@@H](c3cc(C(=O)Nc4cccc(C(F)(F)F)c4)ccc3C)C2)cn1 [Example 49, (S)-4-methyl-3-(1-(2-(methylamino)pyrimidin-5-yl)pyrrolidin-3-yl)-N-(3-(trifluoromethyl)phenyl)benzamide] | < 10 nM | 10 to 25 nM
Cc1ccc(C(=O)Nc2cccc(C(F)(F)F)c2)cc1C1CCN(c2cccnc2)C1 (centres unmarked) [Example 2, 4-methyl-3-(1-(pyridin-3-yl)pyrrolidin-3-yl)-N-(3-(trifluoromethyl)phenyl)benzamide] | < 10 nM | < 10 nM
Cc1ccc(C(=O)Nc2cccc(C(F)(F)F)c2)cc1[C@@H]1CCN(c2cncnc2)C1 [Example 20, (S)-4-methyl-3-(1-(pyrimidin-5-yl)pyrrolidin-3-yl)-N-(3-(trifluoromethyl)phenyl)benzamide] | < 10 nM | < 10 nM
CC(=O)Nc1ncc(N2CC[C@@H](c3cc(C(=O)Nc4cccc(C(F)(F)F)c4)ccc3C)C2)cn1 [Example 51, (S)-3-(1-(2-acetamidopyrimidin-5-yl)pyrrolidin-3-yl)-4-methyl-N-(3-(trifluoromethyl)phenyl)benzamide] | < 10 nM | 10 to 25 nM
CNC(=O)c1cncc(N2CC[C@H](c3cc(C(=O)Nc4cccc(C(F)(F)F)c4)ccc3C)C2)c1 [Example 28, (R)-N-methyl-5-(3-(2-methyl-5-((3-(trifluoromethyl)phenyl)carbamoyl)phenyl)pyrrolidin-1-yl)nicotinamide] | < 10 nM | 10 to 25 nM
Cc1ccc(C(=O)Nc2cccc(C(F)(F)F)c2)cc1C1CCN(c2cncc(Br)c2)C1 (centres unmarked) [Example 13, 3-(1-(5-bromopyridin-3-yl)pyrrolidin-3-yl)-4-methyl-N-(3-(trifluoromethyl)phenyl)benzamide] | 10 to 25 nM | 25 to 60 nM
Cc1ccc(C(=O)Nc2cccc(C(F)(F)F)c2)cc1C1CCN(c2cncc(C(N)=O)c2)C1 (centres unmarked) [Example 17, 5-(3-(2-methyl-5-((3-(trifluoromethyl)phenyl)carbamoyl)phenyl)pyrrolidin-1-yl)nicotinamide] | < 10 nM | 10 to 25 nM
Cc1ccc(C(=O)Nc2cccc(C(F)(F)F)c2)cc1[C@@H]1CCN(c2cncc(C(=O)N3CCC(F)(F)CC3)c2)C1 [Example 32, (S)-3-(1-(5-(4,4-difluoropiperidine-1-carbonyl)pyridin-3-yl)pyrrolidin-3-yl)-4-methyl-N-(3-(trifluoromethyl)phenyl)benzamide] | 25 to 60 nM | > 60 nM
Cc1ccc(C(=O)Nc2cccc(C(F)(F)F)c2)cc1C1CCN(C(=O)c2cccnc2)C1 (centres unmarked) [Example 14, 4-methyl-3-(1-nicotinoylpyrrolidin-3-yl)-N-(3-(trifluoromethyl)phenyl)benzamide] | < 10 nM | < 10 nM
Cc1ccc(C(=O)Nc2cccc(C(F)(F)F)c2)cc1[C@@H]1CCN(c2cnc(Nc3cnn(C)c3)nc2)C1 [Example 48, (S)-4-methyl-3-(1-(2-((1-methyl-1H-pyrazol-4-yl)amino)pyrimidin-5-yl)pyrrolidin-3-yl)-N-(3-(trifluoromethyl)phenyl)benzamide] | < 10 nM | < 10 nM
Cc1ccc(C(=O)Nc2cccc(C(F)(F)F)c2)cc1C1CCN(c2cncc(C#N)c2)C1 (centres unmarked) [Example 4, 3-(1-(5-cyanopyridin-3-yl)pyrrolidin-3-yl)-4-methyl-N-(3-(trifluoromethyl)phenyl)benzamide] | 10 to 25 nM | 25 to 60 nM
CC(=O)Nc1cc(N2CC[C@@H](c3cc(C(=O)Nc4cccc(C(F)(F)F)c4)ccc3C)C2)ccn1 [Example 41, (S)-3-(1-(2-acetamidopyridin-4-yl)pyrrolidin-3-yl)-4-methyl-N-(3-(trifluoromethyl)phenyl)benzamide] | < 10 nM | < 10 nM
Cc1ccc(C(=O)Nc2cccc(C(F)(F)F)c2)cc1[C@@H]1CCN(c2cncc(N3CCC(F)(F)CC3)c2)C1 [Example 31, (S)-3-(1-(5-(4,4-difluoropiperidin-1-yl)pyridin-3-yl)pyrrolidin-3-yl)-4-methyl-N-(3-(trifluoromethyl)phenyl)benzamide] | < 10 nM | > 60 nM
Cc1ccc(C(=O)Nc2ccc(CN(C)C)c(C(F)(F)F)c2)cc1[C@@H]1CCN(c2cncc(C(N)=O)c2)C1 [Example 58, (S)-5-(3-(5-((4-((dimethylamino)methyl)-3-(trifluoromethyl)phenyl)carbamoyl)-2-methylphenyl)pyrrolidin-1-yl)nicotinamide] | < 10 nM | 10 to 25 nM
Cc1ccc(C(=O)Nc2cccc(C(F)(F)F)c2)cc1C1CCN(c2cncc(NCCN3CCOCC3)c2)C1 (centres unmarked) [Example 22, 4-methyl-3-(1-(5-((2-morpholinoethyl)amino)pyridin-3-yl)pyrrolidin-3-yl)-N-(3-(trifluoromethyl)phenyl)benzamide] | < 10 nM | 10 to 25 nM
Cc1ccc(C(=O)Nc2cccc(C(F)(F)F)c2)cc1[C@@H]1CCN(c2ccnc3[nH]ccc23)C1 [Example 42, (S)-3-(1-(1H-pyrrolo[2,3-b]pyridin-4-yl)pyrrolidin-3-yl)-4-methyl-N-(3-(trifluoromethyl)phenyl)benzamide] | 10 to 25 nM | 25 to 60 nM
